Measured values: patent US11781955B2, “Photo-controlled removal of targets in vitro and in vivo” (The United States of America, as represented by the …, priority 2014, dated 2023)
Where two headings read alike, the source gives them in different places.

Experiments:
[1] = cited from earlier work
[2] = IR700 fluorescence after NIR light exposure; assay type: physicochemical; details: 0.5 μM in DMF or PBS, laser 2-16 J/cm^2
Procedure: IR700 (0.5 μM) was suspended in DMF or PBS and exposed to NIR light with a laser (690 nm+/−4) at 2, 4, 8 or 16 J/cm^2. The resulting solution was visualized (in an eppendorf tube) with fluorescence at 700 nm. Some samples were not exposed to NIR light.

[3] = Solubility of silicon phthalocyanines; assay type: physicochemical; details: prior to exposure to NIR light (FIG. 5)
[4] = assay type: physicochemical
Procedure: The resulting solution was run on a 4-20% polyacrylamide gel, and stained with Comassie blue and visualized with light or fluorescence at 700 nm. Some samples were not exposed to NIR light. […] Some examples contained NaN3 (sodium azide), a reactive oxygen scavenger, or no oxygen (using an argon gas flash for 20 minutes). The resulting solution was run on a […] gel, and stained with Comassie blue and visualized with light or fluorescence at 700 nm. Some samples were not exposed to NIR light. […] Some examples contained excess oxygen (using 100% oxygen gas flash for 20 minutes). The resulting solution was run on a 4-20% SDS-PAGE gel, and stained with Comassie blue and visualized with light or fluorescence at 700 nm. Some samples were not exposed to NIR light.

Balb/3T3-RFP cells [5] = assay: PIT on 3D spheroids, non-target cells; assay type: cell-based
Procedure: (§1) Spheroids were generated by the hanging drop method in which five thousand cells were suspended in 50 μL medium and then were dispensed into 96 well plates (3D Biomatrix Inc, Ann Arbor, MI, USA) following manufacturer's instructions (Sato et al., Mol. Oncol. 8, 620-632, 2014). Mixed spheroids were made with 5,000 cells of Balb/3T3-RFP and 500 cells of A431-luc-GFP (100:10)). After observation or treatment, spheroids were again incubated with the hanging drop plates containing new media. The volume of the spheroids was calculated with the formula: spheroid volume=4/3 π×radius^3
(§2) To detect the antigen specific localization of IR700 conjugates, fluorescence microscopy was performed (IX61 or IX81; Olympus America, Melville, NY, USA). Ten thousand cells were seeded on cover-glass-bottomed dishes and incubated for 24 hr. APC was then added to the culture medium at 10 μg/mL and incubated at 37° C. for 6 hr. The cells were then washed with PBS; Propidium Iodide (PI)(1:2000)(Life Technologies) and Cytox Blue (1:500)(Life Technologies), were used to detect dead cells. These were added to the media 30 min before observation. The cells were then exposed to NIR light and serial images were obtained. The filter was set to detect IR700 fluorescence with a 590-650 nm excitation filter, and a 665-740 nm band pass emission filter.

Balb/3T3-RFP cells [6] = assay: In vivo PIT on mixed flank tumor, non-target cells; parameters: species or system mouse; details: repeated PIT
Procedure: (§3) Four million A431-luc-GFP cells were injected subcutaneously in both (right and left symmetrically) flanks of the mice, for the monoculture tumor model. For the mixed tumor model, mixed cells of 4×10^6 A431-luc-GFP cells and 4×10^5 Balb/3T3-RFP cells (100:10) were injected subcutaneously in the both (right and left symmetrically) flanks.
(§4) Controls included (1) only NIR light exposure at 50 J/cm2 on day 1 and 100 J/cm2 on day 2 to the right tumor; (2) no treatment for the left tumor. These therapies were performed only once at day 7 after cell implantation. Mice were monitored daily, and serial image analysis was performed.
(§5) In vivo fluorescence images were obtained with a Pearl Imager (LI-COR Bioscience) for detecting IR700 fluorescence, and a Maestro Imager (CRi, Woburn, MA, USA) for GFP/RFP. […] The spectral fluorescence images consist of autofluorescence spectra and the spectra from GFP/RFP (tumor), which were then unmixed, based on the characteristic spectral pattern of GFP, using Maestro software (CRi). Regions of interest (ROIs) were manually drawn either on the flank tumor or over the abdominal region as appropriate to the model and fluorescence intensity was measured.
(§6) For BLI, D-luciferin (15 mg/mL, 200 μL) was injected intraperitoneally and the mice were analyzed with a Photon Imager for luciferase activity at day 6. […]

A431-luc-GFP cells [7] = assay: Flow cytometry binding to A431-luc-GFP cells with blocking; details: 6 hr incubation at 37° C., blocking study
Procedure: (§7) Fluorescence arising from the cells after incubation with APC agents was measured using a flow cytometer (FACS Calibur, BD BioSciences, San Jose, CA, USA) and CellQuest software (BD BioSciences). Cells (1×10^5) were incubated with each APC for 6 hr at 37° C.

A431-luc-GFP flank tumor = assay: In vivo PIT on flank tumor; parameters: species or system mouse; details: 100 μg, repeated PIT 50 J/cm2 day 1 and 100 J/cm2 day 2
Procedure: All in vivo procedures were conducted in compliance with the Guide for the Care and Use of Laboratory Animal Resources (1996), US National Research Council, and approved by the local Animal Care and Use Committee. Six- to eight-week-old female homozygote athymic nude mice were purchased from Charles River (NCI-Frederick). During procedures, mice were anesthetized with isoflurane.
Four million A431-luc-GFP cells were injected subcutaneously in both (right and left symmetrically) flanks of the mice, for the monoculture tumor model. […]
Controls included (1) only NIR light exposure at 50 J/cm2 on day 1 and 100 J/cm2 on day 2 to the right tumor; (2) no treatment for the left tumor. […] Mice were monitored daily, and serial image analysis was performed.
as §5, with “measured. […]” for “measured.”

Balb/3T3-RFP cells [8] = assay: Flow cytometry binding to Balb/3T3-RFP cells; details: non-EGFR expressing cells
Procedure: as §7

Balb/3T3-RFP cells [9] = assay: PIT on mixed 2D cell culture, non-target cells; assay type: cell-based; details: mixed 2D culture, repeated PIT 2 J/cm2
Procedure: (§8) Two hundred thousand A431-luc-GFP cells were seeded into 24 well plates or twenty million cells were seeded onto a 10 cm dish and incubated for 24 hr. Medium was replaced with fresh culture medium containing 10 μg/mL of tra-IR700 which was incubated for 6 hr at 37° C. After washing with PBS, phenol red free culture medium was added. Then, cells were irradiated with a NIR laser, which emits light at 670 to 710 nm wavelength (L690-66-60; Marubeni America Co., Santa Clara, CA, USA). The actual power density (mW/cm2) was measured with an optical power meter (PM 100, Thorlabs, Newton, NJ, USA).
(§9) The cytotoxic effects of PIT with APC were determined by the luciferase activity and flow cytometric PI staining or GFP. For luciferase activity, 150 μg/mL of D-luciferin-containing media (Gold Biotechnology, St Louis, MO, USA) was administered to PBS-washed cells 1 hr after PIT, and analyzed on a bioluminescence imaging (BLI) system (Photon Imager; Biospace Lab, Paris, France). For the flow cytometric assay, cells were trypsinized 1 hr after treatment and washed with PBS. […]
(§10) Two hundred thousand cells were seeded on cover-glass-bottomed dishes and incubated for 12 hr. […] The GFP/RFP intensity was evaluated with total pixels with the same threshold in the same field of each spheroid20. […] Fluorescence from treated cells was also measured using a flow cytometer (FACS Calibur).

A431-luc-GFP cells [10] = assay: PIT on mixed 3D spheroid, target cells; assay type: cell-based; details: repeated PIT 2 J/cm2
Procedure: as §1, §2

A431-luc-GFP cells [11] = assay: In vivo PIT on mixed flank tumor, target cells; parameters: species or system mouse; details: repeated PIT
Procedure: as §3, §4, §5, §6

[12] = system: A431-luc-GFP 3D spheroids; assay type: cell-based
Procedure: as §1, §2
3D reconstructions of the spheroids were obtained with a confocal laser microscope (LSM5 meta, Carl Zeiss, Jena, Germany) after incubation for 30 min with Hoechst 33342 (1:500)(Life Technologies). Sections of spheroids were first fixed with 3.7% formaldehyde in PBS for 10 min at room temperature followed by embedding with OCT (SAKURA, Tokyo, Japan). Then, they were frozen at −80° C., and sliced at 10 μm with a cryotome (LEICA CM3050 S, Leica microsystems, Wetzlar, Germany). Analysis of the images was performed with ImageJ software (http://rsb.info.nih.gov/ij/).

A431-luc-GFP cells [13] = assay: PIT on mixed 2D cell culture, target cells; assay type: cell-based; details: mixed 2D culture, repeated PIT 2 J/cm2
Procedure: as §8, §9, §10

A431-luc-GFP cells [14] = assay: In vitro PIT on 2D culture (PI staining, luciferase activity, GFP fluorescence); assay type: cell-based
Procedure: as §2, §8
as §9, with “France).” for “France). For the flow cytometric assay, cells were trypsinized 1 hr after treatment and washed with PBS.”
as §10

[15] = variety of solvents, including water; cited from earlier work

Which extinction coefficient ([1]; at 654 nm) does the source give for `C=Cc1c(C)c2cc3nc(c(CC(=O)N[C@@H](CC(=O)[O-])C(=O)[O-])c4[nH]c(cc5nc(cc1[nH]2)C(C)=C5CC)c(C)c4C(=O)[O-])[C@@H](CCC(=O)[O-])[C@@H]3C.[Na+].[Na+].[Na+].[Na+]` [NPe6/Laserphyrin®, mono-L-aspartylchlorin e6] here?
Its extinction coefficient is 40000 M⁻¹ cm⁻¹.

Which “fluorescence after NIR exposure (photobleaching)” value [2] does the source give for IRDye® 700DX [IR700] here?
Its value is “still fluorescent even after exposure to strong NIR light”.

And the extinction coefficient ([1]; at the absorption maximum of 689 nm)?
The extinction coefficient was 210000 M⁻¹ cm⁻¹.

And the solubility [3]?
Its solubility is “can dissolve in different aqueous and organic solvents”.

Which “degradation by NIR in excess oxygen” value [4] does the source give for “Pan-IR700: Panitumumab (Vectibix), anti-human EGFR IgG2 MAb, conjugated to IR700; about 3 IR700 per antibody” here?
The value was “less degradation”.

What about the “oxygen dependence of cleavage by NIR” value ([4]; 8 or 16 J/cm^2, no treatment, NaN3 or no oxygen (argon)) of the same compound?
The value was “oxygen independent”.

What about the “cleavage of conjugate after NIR light” value ([4]; PBS, LED or laser 690 nm, 2-16 J/cm^2) of the same compound?
The value was “broken down or cleaved after exposure to NIR light”.

And the “effect on non-target cells” value (Balb/3T3-RFP cells [5]; mixed 3D spheroid, repeated PIT 2 J/cm2)?
Its value is “without damaging non-target cells”.

And the “change of non-target-expressing 3D spheroid with PIT” value (Balb/3T3-RFP cells [5]; spheroid of non-target cells only)?
Its value is “no remarkable change”.

What about the “damage to non-target cells in mixed tumors” value (Balb/3T3-RFP cells [6]) of the same compound?
The value was “minimal damage to non-target cells”.

What about the “binding to cells (FACS)” value (A431-luc-GFP cells [7]) of the same compound?
Its value is “Specific binding”.

What about the “GFP signal and luciferase activity of tumor” value (A431-luc-GFP flank tumor) of the same compound?
The value was “disappearance of both GFP signal and luciferase activity”.

What about the “binding to cells (FACS)” value (Balb/3T3-RFP cells [8]) of the same compound?
The value was “no binding”.

What about the “effect on non-target cells” value (Balb/3T3-RFP cells [9]) of the same compound?
The value was “without affecting the non-target cell growth”.

What about the target cell elimination (A431-luc-GFP cells [10]) of the same compound?
Its target cell elimination is “complete target cell elimination from the mixed 3D cell culture”.

What about the “target cell elimination from mixed tumors” value (A431-luc-GFP cells [11]) of the same compound?
The value was “complete elimination of target-expressing cells from mixed tumors in vivo”.

And the “permeation into spheroids (IR700 fluorescence)” value [12]?
The value was “gradually permeated into spheroids from the perimeter”.

And the “eradication of cells in 3D spheroid” value ([12]; daily repeated PIT)?
The value was “complete eradication of A431-luc-GFP cells within spheroids”.

What about the “cell death in 3D spheroid after PIT” value ([12]; single PIT, 2 J/cm2) of the same compound?
The value was “necrotic cell death in the APC-bound layer of A431-luc-GFP cells”.

What about the “spheroid size after PIT” value ([12]; target 3D spheroid) of the same compound?
The value was “clearly decreased in size”.

And the target cell elimination (A431-luc-GFP cells [13])?
The target cell elimination was “complete target cell elimination”.

And the “bioluminescence (BLI) and GFP fluorescence intensity after PIT” value (A431-luc-GFP cells [14]; 2D culture, 1 hr after PIT)?
The value was “decrease in bioluminescence (BLI) and GFP fluorescence intensity also in a light-dose dependent manner”.

What about the “cell killing (dead PI staining)” value (A431-luc-GFP cells [14]; 2D culture, NIR light dose series) of the same compound?
The value was “killed in a light-dose dependent manner”.

What about the “cell death by microscopy” value (A431-luc-GFP cells [14]; 6 hr incubation, NIR 2 J/cm2, 1 hr after PIT) of the same compound?
The value was “Necrotic cell death was observed”.

With `Oc1cccc(-c2c3nc(c(-c4cccc(O)c4)c4ccc([nH]4)c(-c4cccc(O)c4)c4nc(c(-c5cccc(O)c5)c5ccc2[nH]5)CC4)C=C3)c1` [Foscan®, meta-tetrahydroxyphenylchlorin] as the compound, how does the extinction coefficient ([1]; at 652 nm) read?
The extinction coefficient was 22000 M⁻¹ cm⁻¹.

Which solubility [15] does the source give for `O[Si]1(O)n2c3c4ccccc4c2N=C2N=C(N=c4c5ccccc5c(n41)=NC1=NC(=N3)c3ccccc31)c1ccccc12` [silicon phthalocyanine dihydroxide] here?
Its solubility is “no measurable solubility”.

For Photofrin®, which extinction coefficient ([1]; at 630 nm) is on record?
The extinction coefficient was 1200 M⁻¹ cm⁻¹.
